Test results from the supplement of paper PMC6045584.
± gives the standard deviation of the averaged measurements.

Tests used:
IMATINIB = compound: Cc1ccc(NC(=O)c2ccc(CN3CCN(C)CC3)cc2)cc1Nc1nccc(-c2cccnc2)n1 [IMATINIB]; assay: surviving fraction relative to DMSO-only wells; higher = less growth inhibition; conditions: exposure time: 5 days
Summary of the method: (§1)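 Inhibitors were tested at 0.5, 1, 5, 10, 50, 100, 500 and 1000 nM, applied continuously for five days beginning 24 hours after log-phase tumour cells were seeded at 250–500 per well in 384-well plates. CellTiter-Glo luminescence served as the viability measure, expressed as surviving fraction against the median of DMSO-only wells. Each line, screened three times, was kept only with replicate Pearson r >0.7 and median Z' >0.3.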

[1] = compound: C[C@H](CN(C)C)Oc1nc(Nc2cc3cccc(Cl)c3cn2)cnc1C#N; assay: as above; conditions: exposure time: 5 days
Summary of the method: as §1

Test System	surviving fraction (IMATINIB; 0.5 nM)	surviving fraction (IMATINIB; 1 nM)	surviving fraction (IMATINIB; 5 nM)	surviving fraction (IMATINIB; 10 nM)	surviving fraction (IMATINIB; 50 nM)	surviving fraction (IMATINIB; 100 nM)	surviving fraction (IMATINIB; 500 nM)	surviving fraction (IMATINIB; 1000 nM)	surviving fraction ([1]; 0.5 nM)	surviving fraction ([1]; 1 nM)	surviving fraction ([1]; 5 nM)	surviving fraction ([1]; 10 nM)	surviving fraction ([1]; 50 nM)	surviving fraction ([1]; 100 nM)	surviving fraction ([1]; 500 nM)	surviving fraction ([1]; 1000 nM)
MFM223 BREAST	1.27 ± 0.17	1.24 ± 0.041	1.13 ± 0.057	1.19 ± 0.14	1.19 ± 0.063	1.17 ± 0.1	1.18 ± 0.055	1.15 ± 0.052	1.27 ± 0.17	1.09 ± 0.057	1.15 ± 0.14	1.09 ± 0.094	1.08 ± 0.093	1.14 ± 0.18	0.8 ± 0.048	0.526 ± 0.17
MG63 BONE	1.08 ± 0.028	1.05 ± 0.029	1.1 ± 0.03	1.09 ± 0.035	1.09 ± 0.053	1.08 ± 0.034	–	–	1.03 ± 0.042	1.05 ± 0.035	1.05 ± 0.037	1.06 ± 0.025	1.11 ± 0.031	1.12 ± 0.047	1.05 ± 0.051	0.889 ± 0.045
MHM BONE	1.07 ± 0.032	1.03 ± 0.059	1.09 ± 0.043	1.09 ± 0.045	–	–	1.08 ± 0.029	–	1.02 ± 0.031	1.03 ± 0.012	1.04 ± 0.026	1.07 ± 0.06	1.031 ± 0.0078	1.05 ± 0.02	1.063 ± 0.0031	0.999 ± 0.018
NCIH441 LUNG	1.175 ± 0.0068	1.14 ± 0.076	–	1.14 ± 0.053	1.03 ± 0.12	1.06 ± 0.082	–	1.16 ± 0.15	1.1 ± 0.07	1.01 ± 0.04	1.1 ± 0.035	1.19 ± 0.053	1.17 ± 0.026	1.16 ± 0.11	0.86 ± 0.051	0.531 ± 0.031
NOS1 BONE	1.18 ± 0.11	1.12 ± 0.041	1.2 ± 0.085	1.13 ± 0.11	–	1.06 ± 0.15	0.883 ± 0.14	0.898 ± 0.039	1.09 ± 0.18	1.05 ± 0.082	0.999 ± 0.066	1.02 ± 0.076	0.875 ± 0.046	0.709 ± 0.12	0.252 ± 0.0046	0.253 ± 0.0087
NY BONE	1.08 ± 0.021	1.08 ± 0.022	1.12 ± 0.051	1.1 ± 0.013	1.107 ± 0.0076	1.11 ± 0.025	1.04 ± 0.043	1.03 ± 0.019	0.9707 ± 0.0081	0.948 ± 0.042	1.01 ± 0.026	1.01 ± 0.015	1 ± 0.029	0.854 ± 0.06	0.119 ± 0.0045	0.0907 ± 0.0051
OS25HAL BONE	1.08 ± 0.041	1.04 ± 0.035	1.03 ± 0.021	1.06 ± 0.027	1.08 ± 0.013	1.1 ± 0.017	–	–	0.972 ± 0.013	0.965 ± 0.034	1.049 ± 0.0085	0.979 ± 0.024	1.07 ± 0.057	1.09 ± 0.014	0.615 ± 0.082	0.217 ± 0.023
OSHN BONE	1.13 ± 0.024	1.126 ± 0.0095	1.1 ± 0.033	1.12 ± 0.012	1.16 ± 0.013	1.14 ± 0.017	–	1.1 ± 0.051	1.06 ± 0.015	1.08 ± 0.025	1.07 ± 0.015	1.068 ± 0.0038	1.13 ± 0.029	1.1 ± 0.019	0.709 ± 0.1	0.11 ± 0.019
PCI30 HEADNECK	–	0.943 ± 0.017	–	1.08 ± 0.11	1.13 ± 0.042	1.13 ± 0.024	1.06 ± 0.067	0.981 ± 0.038	0.99 ± 0.044	0.999 ± 0.019	1.06 ± 0.059	1.06 ± 0.11	0.9137 ± 0.0042	0.827 ± 0.079	0.337 ± 0.021	0.322 ± 0.017
